Counter-ions that a name gives are not always drawn. Like-named read-outs stand apart in the source and are kept apart here.
Assays:
KRas G12C = KRas G12C (Homo sapiens, UniProt P01116, C118S/C51S/C80L/G12C); assay: KRas G12C Modification Assay (LCMS detection of covalent adduct); assay type: binding; settings: normalized percent of control, tested at 5 μM concentration for 3 hours
Summary of the method: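 Cys-light KRas G12C mutant protein incubated with compound in K-Ras assay buffer, reactions quenched at set time points with 25 mM acetic acid and analysed by intact-protein LC/MS on a C-3 column. Deconvoluted mass heights expressed as percent of control (POC) relative to compound-free protein.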

[1] = tested on: NCI-H358 cells (express KRas G12C), Phospho-ERK; assay: Cellular inhibition of KRas G12C: Phospho-ERK in NCI-H358 cells; assay type: cell-based; settings: pERK(Thr202/Tyr204) normalized with GAPDH, NCI-H358 cells, 3 hours, read-out: IC50
Summary of the method: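 IC50 derived by 4-parameter fit of GAPDH-normalized pERK(Thr202/Tyr204) signal, as percent of DMSO control. Signal came from in-cell immunodetection with infrared secondaries after 3 h compound exposure of KRas G12C NCI-H358 cells at 0.5% DMSO.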

Row | Compound | POC (KRas G12C) | IC50 ([1]; Homo sapiens) | IC50 [1] | IC50 ([1]; Homo sapiens, NCI-H358, 3 h) | POC (KRas G12C; 5 µM)
1 | C=CC(=O)N1CCN(c2nc(OC[C@@H]3C[C@@H](F)CN3C(C)C)nc3c2CCN(c2cncc(F)c2C(F)(F)F)C3)C[C@@H]1CC#N [Example 386, 2-((S)-1-acryloyl-4-(2-(((2S,4R)-4-fluoro-1-isopropylpyrrolidin-2-yl)methoxy)-7-(5-fluoro-4-(trifluoromethyl)pyridin-3-yl)-5,6,7,8-tetrahydropyrido[3,4-d]pyrimidin-4-yl)piperazin-2-yl)acetonitrile] | C (“C”>50% POC) | 0.0001 to 1 µM | – | – | –
2 | C=CC(=O)N1CCN(c2nc(OC[C@@H]3CCCN3C)nc3c2CCN(c2c(F)cccc2C(F)(F)F)C3)CC1CC#N (stereo partly drawn) [Example 411, 2-(1-acryloyl-4-(7-(2-fluoro-6-(trifluoromethyl)phenyl)-2-(((S)-1-methylpyrrolidin-2-yl)methoxy)-5,6,7,8-tetrahydropyrido[3,4-d]pyrimidin-4-yl)piperazin-2-yl)acetonitrile] | C (“C”>50% POC) | – | 0.0001 to 1 µM | – | –
3 | C=CC(=O)N1CCN(c2nc(OC[C@@H]3CCCN3C)nc3c2CCN(c2cccc4cccc(Br)c24)C3)C[C@@H]1CC#N [Example 461, 2-((S)-1-acryloyl-4-(7-(8-bromonaphthalen-1-yl)-2-(((S)-1-methylpyrrolidin-2-yl)methoxy)-5,6,7,8-tetrahydropyrido[3,4-d]pyrimidin-4-yl)piperazin-2-yl)acetonitrile] | C (“C”>50% POC) | – | – | 0.0001 to 1 µM | –
4 | CN(C)C/C=C/C(=O)N1CCN(c2nc(OC[C@H]3CCCN3C)nc3c2CCN(c2cccc(Cl)c2C(F)(F)F)C3)C[C@@H]1CC#N [Example 422, 2-((S)-4-(7-(3-chloro-2-(trifluoromethyl)phenyl)-2-(((R)-1-methylpyrrolidin-2-yl)methoxy)-5,6,7,8-tetrahydropyrido[3,4-d]pyrimidin-4-yl)-1-((E)-4-(dimethylamino)but-2-enoyl)piperazin-2-yl)acetonitrile] | C (“C”>50% POC) | – | – | 0.0001 to 1 µM | –
5 | C=CC(=O)N1CCN(c2nc(OC[C@@H]3CCCN3C)nc3c2CCN(c2cccc4ccccc24)C3)[C@@H](C#N)C1 [Example 462, (R)-4-acryloyl-1-(2-(((S)-1-methylpyrrolidin-2-yl)methoxy)-7-(naphthalen-1-yl)-5,6,7,8-tetrahydropyrido[3,4-d]pyrimidin-4-yl)piperazine-2-carbonitrile] | C (“C”>50% POC) | – | – | > 1 µM | –
6 | C=CC(=O)N1CCN(c2nc(OC[C@@H]3COCCN3C)nc3c2CCN(c2cccc4ccccc24)C3)CC1CC#N (stereo partly drawn) [Example 443, 2-(1-Acryloyl-4-(2-(((S)-4-methylmorpholin-3-yl)methoxy)-7-(naphthalen-1-yl)-5,6,7,8-tetrahydropyrido[3,4-d]pyrimidin-4-yl)piperazin-2-yl)acetonitrile] | C (“C”>50% POC) | – | 0.0001 to 1 µM | – | –
7 | C=CC(=O)N1CCN(c2nc(OCCN(C)C)nc3c2CCN(c2cc(O)cc4ccccc24)C3)C[C@@H]1CC#N [Example 176, 2-[(2S)-4-[2-[2-(dimethylamino)ethoxy]-7-(3-hydroxy-1-naphthyl)-6,8-dihydro-5H-pyrido[3,4-d]pyrimidin-4-yl]-1-prop-2-enoyl-piperazin-2-yl]acetonitrile] | C (“C”>50% POC) | – | – | 0.0001 to 1 µM | –
8 | C=CC(=O)N1CCN(c2nc(OC[C@H]3CCN(C)C3)nc3c2CCN(c2cc(O)cc4ccccc24)C3)CC1 [Example 188, (S)-1-(4-(7-(3-hydroxynaphthalen-1-yl)-2-((1-methylpyrrolidin-3-yl)methoxy)-5,6,7,8-tetrahydropyrido[3,4-d]pyrimidin-4-yl)piperazin-1-yl)prop-2-en-1-one] | C (“C”>50% POC) | – | – | 0.0001 to 1 µM | –
9 | C=CC(=O)N1CCN(c2nc(OC[C@@H]3CCCN3C)nc3c2CCN(c2cccc4ncccc24)C3)CC1CC#N (stereo partly drawn) [Example 264, 2-[4-[2-[[(2S)-1-methylpyrrolidin-2-yl]methoxy]-7-(5-quinolyl)-6,8-dihydro-5H-pyrido[3,4-d]pyrimidin-4-yl]-1-prop-2-enoyl-piperazin-2-yl]acetonitrile] | C (“C”>50% POC) | – | – | > 1 µM | –
10 | C=CC(=O)N1CCN(c2nc(OCCCN3C[C@@H]4C[C@H]3CO4)nc3c2CCN(c2c(C)ccc4[nH]ncc24)C3)CC1 [Example 181, 1-(4-(2-(3-((1 S,4S)-2-oxa-5-azabicyclo[2.2.1]heptan-5-yl)propoxy)-7-(5-methyl-1H-indazol-4-yl)-5,6,7,8-tetrahydropyrido[3,4-d]pyrimidin-4-yl)piperazin-1-yl)prop-2-en-1-one] | C (“C”>50% POC) | > 1 µM | – | – | –
11 | C=CC(=O)N1CCN(c2nc(OC[C@@H]3CCN(C)C3)nc3c2CCN(c2cccc4cccc(Cl)c24)C3)C[C@@H]1CC#N [Example 361, 2-[(2S)-4-[7-(8-chloro-1-naphthyl)-2-[[(3R)-1-methylpyrrolidin-3-yl]methoxy]-6,8-dihydro-5H-pyrido[3,4-d]pyrimidin-4-yl]-1-prop-2-enoyl-piperazin-2-yl]acetonitrile] | C (“C”>50% POC) | – | – | 0.0001 to 1 µM | –
12 | C=CC(=O)N1CCN(c2nc(OC[C@@H]3CCCN3C)nc3c2CCN(c2cccc(Cl)c2Cl)C3)C[C@@H]1CC#N [Example 420, 2-((S)-1-acryloyl-4-(7-(2,3-dichlorophenyl)-2-(((S)-1-methylpyrrolidin-2-yl)methoxy)-5,6,7,8-tetrahydropyrido[3,4-d]pyrimidin-4-yl)piperazin-2-yl)acetonitrile] | C (“C”>50% POC) | – | – | 0.0001 to 1 µM | –
13 | C=CC(=O)N1CCN(c2nc(OC[C@@H]3CCCN3C)nc3c2CCN(c2ccccc2F)C3)CC1CC#N (stereo partly drawn) [Example 227, 2-(1-acryloyl-4-(7-(2-fluorophenyl)-2-(((S)-1-methylpyrrolidin-2-yl)methoxy)-5,6,7,8-tetrahydropyrido[3,4-d]pyrimidin-4-yl)piperazin-2-yl)acetonitrile] | A (“A”≤25% POC) | – | – | 0.0001 to 1 µM | –
14 | C=CC(=O)N1CCN(c2nc(OC[C@@H]3CCCN3C)nc3c2CCN(c2ccnc4ccccc24)C3)CC1CC#N (stereo partly drawn) [Example 295, 2-[4-[2-[[(2S)-1-methylpyrrolidin-2-yl]methoxy]-7-(4-quinolyl)-6,8-dihydro-5H-pyrido[3,4-d]pyrimidin-4-yl]-1-prop-2-enoyl-piperazin-2-yl]acetonitrile] | – | – | > 1 µM | – | A (“A”≤25% POC)
15 | C=CC(=O)N1CCN(c2nc(OC[C@@H]3CCCN3C)nc3c2CCN(c2cncc(F)c2C(F)(F)F)C3)C[C@@H]1CC#N [Example 383, 2-((S)-1-acryloyl-4-(7-(5-fluoro-4-(trifluoromethyl)pyridin-3-yl)-2-(((S)-1-methylpyrrolidin-2-yl)methoxy)-5,6,7,8-tetrahydropyrido[3,4-d]pyrimidin-4-yl)piperazin-2-yl)acetonitrile] | C (“C”>50% POC) | – | – | 0.0001 to 1 µM | –
16 | C=CC(=O)N1CCN(c2nc(OC[C@@H]3CCCN3C)nc3c2CCN(c2cccc4cc(F)ccc24)C3)CC1CC#N (stereo partly drawn) [Example 290, 2-[4-[7-(6-fluoro-1-naphthyl)-2-[[(2S)-1-methylpyrrolidin-2-yl]methoxy]-6,8-dihydro-5H-pyrido[3,4-d]pyrimidin-4-yl]-1-prop-2-enoyl-piperazin-2-yl]acetonitrile] | C (“C”>50% POC) | – | 0.0001 to 1 µM | – | –
17 | C=CC(=O)N1CCN(c2nc(OC[C@@H]3CCCN3C)nc3c2CCN(c2c(C)ccc(F)c2C)C3)C[C@@H]1CC#N [Example 349, 2-((S)-1-acryloyl-4-(7-(3-fluoro-2,6-dimethylphenyl)-2-(((S)-1-methylpyrrolidin-2-yl)methoxy)-5,6,7,8-tetrahydropyrido[3,4-d]pyrimidin-4-yl)piperazin-2-yl)acetonitrile] | C (“C”>50% POC) | – | – | 0.0001 to 1 µM | –
18 | C=CC(=O)N1CCN(c2nc(OC[C@H]3CN(C)CCO3)nc3c2CCN(c2cccc4ccccc24)C3)C[C@@H]1CC#N [Example 448, 2-((S)-1-Acryloyl-4-(2-(((R)-4-methylmorpholin-2-yl)methoxy)-7-(naphthalen-1-yl)-5,6,7,8-tetrahydropyrido[3,4-d]pyrimidin-4-yl)piperazin-2-yl)acetonitrile] | C (“C”>50% POC) | – | – | 0.0001 to 1 µM | –
19 | C=CC(=O)N1CCN(c2nc(OCCN3CCS(=O)(=O)CC3)nc3c2CCN(c2cc(O)cc4ccccc24)C3)CC1 [Example 33, 1-(4-(2-(2-(1,1-dioxidothiomorpholino)ethoxy)-7-(3-hydroxynaphthalen-1-yl)-5,6,7,8-tetrahydropyrido[3,4-d]pyrimidin-4-yl)piperazin-1-yl)prop-2-en-1-one trifluoroacetate] | B (“B”>25% POC−≤50% POC) | – | – | > 1 µM | –
20 | C=CC(=O)N1CCN(c2nc(OC[C@@H]3CCCN3CC)nc3c2CCN(c2cccc(Cl)c2C(F)(F)F)C3)C[C@@H]1CC#N [Example 339, 2-((S)-1-acryloyl-4-(7-(3-chloro-2-(trifluoromethyl)phenyl)-2-(((S)-1-ethylpyrrolidin-2-yl)methoxy)-5,6,7,8-tetrahydropyrido[3,4-d]pyrimidin-4-yl)piperazin-2-yl)acetonitrile] | C (“C”>50% POC) | – | – | 0.0001 to 1 µM | –
21 | C=CC(=O)N1CCN(c2nc(OC[C@@H]3CCCN3CCOC)nc3c2CCN(c2cccc4ccccc24)C3)CC1CC#N (stereo partly drawn) [Example 266, 2-(1-acryloyl-4-(2-(((S)-1-(2-methoxyethyl)pyrrolidin-2-yl)methoxy)-7-(naphthalen-1-yl)-5,6,7,8-tetrahydropyrido[3,4-d]pyrimidin-4-yl)piperazin-2-yl)acetonitrile] | C (“C”>50% POC) | – | – | 0.0001 to 1 µM | –
